Article PMC10328330 (PLOS ONE, 2023)
Where two headings read alike, the source gives them in different places.

Assays:
[1] = test system: T. gondii tachyzoites (RH strain, clone 2F1); test: microbe, parasite or virus in culture; format: cell-based, Toxoplasma gondii; conditions: for EC50: 72 h, read-out: EC50 ± SD against T. gondii tachyzoites
HFF cells = test: Cytotoxicity in mammalian cells (MTT assay); conditions: read-out: CC50 ± SD against HFF cells; HFF, 72 h, MTT; highest tested concentration 50 μM; ± SD of two independent experiments
T. gondii = test system: T. gondii; parameters: method as in PMID 23019377; conditions: T. gondii-infected mice, after 16 days of treatment, cited from earlier work
[2] = Cytotoxicity in mammalian cells (MTT assay); conditions: human, HFF cells
T. gondii (ME49 strain) = test: Efficacy in mice chronically infected with T. gondii (brain cysts, qPCR parasite burden); format: in vivo, Toxoplasma gondii; conditions: C57BL/6 mice chronically infected with ME49
Procedure: Chronic infection in Male C57/BL/6 mice (4 weeks-old) was obtained by intraperitoneal injection of brain tissue cysts (ME49 strain) as previously described. The cysts were obtained by directly macerating the brain tissue of previously chronically infected mice in 5 mL of saline solution. The resulting mixture was then subjected to a counting procedure using a Neubauer chamber under a microscope to determine the concentration of the cysts. To prepare the cysts for injection, they were further diluted in saline solution to achieve the desired concentration of 10 cysts per animal. Subsequently, the mice in the experiment were infected with these freshly obtained brain cysts via intraperitoneal injection. The animals were considered chronically infected 40 days post-infection, according to the protocol described by. […] Additionally, the presence of brain cysts, known to be responsible for the observed symptoms, further confirmed the chronic infection status.
Forty days after infection, chronically infected mice were randomly assigned into experimental groups (n = 4 per group). […] On day 51 post-infection, all animals were euthanized, and their brains were collected for analyses. The brains were used for microscopic counting of cysts, measurement of cysts area, RNA extraction, and quantification. For microscopic counting, 25 μL of macerated organ was utilized, while 200 μL was used for RNA extraction. Cysts area was measured using ImageJ software, available at https://imagej.nih.gov/ij/.
We performed a serial dilution of cultured tachyzoites of T. gondii (RH strain), ranging from 5×10^6 to 7.8×10^4 forms per mL. DNA samples were extracted from each point of the serial dilution (in duplicate samples), and real-time PCR was performed. The resulting data were used to plot the cycle threshold value (CT) against varying amounts of parasites, ultimately generating a standard curve. […]
Each DNA and cDNA samples were analysed by quantitative real-time PCR using the set of primers Rep529, which amplified a T. gondii repetitive DNA fragment. […]

mice = test system: mice; parameters: method as in PMID 23791825; conditions: cited from earlier work
[3] = CC50 HFF cells/EC50 T. gondii ratio
[4] = RH-2F1 tachyzoites in HFF, β-galactosidase readout, ± SD of two independent experiments
[5] = Toxoplasma gondii, RH-2F1 tachyzoites in HFF, β-galactosidase readout, ± SD of two independent experiments

In the case of COc1cccc2c1CCCC2CCCN1CCN(C2CCCCC2)CC1 (stereo not shown) [Compound 23, PB 28], the “Selectivity Index (SI)” value [1, 3] is reported as over 102, the EC50 [1, 4] is reported as 490 ± 210 nM and the CC50 (HFF cells) is reported as over 50000 nM.
In the case of COc1cc2[nH]c(C)c(-c3ccc(Oc4ccc(OC(F)(F)F)cc4)cc3)c(=O)c2cc1F [ELQ-316], the “reduction of the number of brain cysts” value (T. gondii; 25 mg/kg) is given as 88%.
CCC(C)n1ncn(-c2ccc(N3CCN(c4ccc(OCC5COC(Cn6cncn6)(c6ccc(Cl)cc6Cl)O5)cc4)CC3)cc2)c1=O (stereo not shown) [Compound 5, Itraconazole] showed an EC50 [1, 5] of 100 ± 10 nM and a CC50 at 72 h [2] of over 50000 nM.
With O=C(Nc1ccc([N+](=O)[O-])cc1Cl)c1cc(Cl)ccc1O [Compound 1, Niclosamide] the “Selectivity Index (SI)” value [1] was 83, the EC50 [1, 5] was 430 ± 150 nM and the CC50 at 72 h [2] was 35500 ± 9570 nM.
In the case of C=CCNc1nc(NCC=C)nc(N2CCN(C(c3ccc(F)cc3)c3ccc(F)cc3)CC2)n1 [Compound 11, Almitrine], the EC50 [1, 5] is reported as 320 ± 140 nM and the CC50 at 72 h [2] is reported as over 50000 nM.
In the case of O=C1C(O)=C([C@H]2CC[C@H](c3ccc(Cl)cc3)CC2)C(=O)c2ccccc21 [Atovaquone], the “reduction of the number of brain cysts” value (T. gondii; 5 mg/kg) is listed as 44%.
In the case of CNCc1[cH-]ccc1CNc1ccnc2cc(Cl)ccc12.[Fe+2].c1cc[cH-]c1 [Compound 27, Desmethyl ferroquine], the “Selectivity Index (SI)” value [1, 3] is reported as 71, the EC50 [1, 4] is reported as 540 ± 20 nM and the CC50 (HFF cells) is reported as 38200 ± 15600 nM.
For COc1ccc2cc1Oc1ccc(cc1)C[C@H]1c3cc(c(OC)cc3CCN1C)Oc1c(O)c(OC)cc3c1[C@H](C2)N(C)CC3 [Compound 20, Hanfangchin B], the “Selectivity Index (SI)” value [1, 3] was 54, the EC50 [1, 4] was 840 ± 190 nM and the CC50 (HFF cells) was 45000 ± 5850 nM.
In the case of C[C@@H](C1CCCCC1)n1c(-c2cc3c(cc2Br)OCO3)nc2cc(C(=O)Nc3ccc(C#N)cc3)ccc21 [Compound 26, AZ3451], the “Selectivity Index (SI)” value [1, 3] is reported as over 55, the EC50 [1, 4] is reported as 910 ± 90 nM and the CC50 (HFF cells) is reported as over 50000 nM.
With OC(CNCC(O)C1CCc2cc(F)ccc2O1)C1CCc2cc(F)ccc2O1 (stereo not shown) [Compound 28, Nebivolol] the “Selectivity Index (SI)” value [1] was 48, the EC50 [1, 5] was 780 ± 280 nM and the CC50 at 72 h [2] was 37100 ± 2880 nM.
For O=C(O)c1ccc2c(c1)nc(Nc1cccc(Cl)c1)c1ccncc12 [Compound 22, Silmitasertib], the EC50 [1, 5] was 870 ± 150 nM and the CC50 at 72 h [2] was 38400 ± 16400 nM.
In the case of O=C1NCN(c2ccccc2)C12CCN(CCCC(c1ccc(F)cc1)c1ccc(F)cc1)CC2 [Compound 14, Fluspirilene], the EC50 [1, 5] is reported as 760 ± 70 nM and the CC50 at 72 h [2] is reported as over 50000 nM.
CNC(=O)c1cc(Oc2ccc(NC(=O)Nc3ccc(Cl)c(C(F)(F)F)c3)cc2)ccn1 [Compound 9, Sorafenib] gave an EC50 [1, 5] of 650 ± 250 nM and a CC50 at 72 h [2] of 12400 ± 3170 nM.
With C=CCNc1nc(NCC=C)nc(N2CCN(C(c3ccc(F)cc3)c3ccc(F)cc3)CC2)n1 [almitrine bismesylate] the “parasite burden in the brains (real-time PCR)” value (T. gondii (ME49 strain); 25 mg/kg/day oral for 10 days, RNA of living parasites by qPCR, vs vehicle control group) was “statistically significant (p < 0.001) reduction”, the cysts area (T. gondii (ME49 strain); 12.5 and 25 mg/kg/day oral for 10 days from day 40 post-infection, microscopy of brain macerates, ImageJ, vs vehicle) was “significant reduction (p < 0.05)” and the “number of brain cysts” value (T. gondii (ME49 strain); 12.5 and 25 mg/kg/day oral for 10 days from day 40 post-infection, microscopy of brain macerates, vs vehicle) was “significant reduction (p < 0.05)”. The LD50 (mice) was over 200 mg/kg.
With Nc1nc2nc[nH]c2c(=S)[nH]1 [Compound 6, Tioguanine] the “Selectivity Index (SI)” value [1] was over 109, the EC50 ([1]; Toxoplasma gondii) was 460 ± 190 nM and the CC50 at 72 h [2] was over 50000 nM.
